Holding throughout (experiment): GC-MS of terpene products after phosphatase treatment
What all share (assay type): biochemical

The target in one assay is T1, AlTPS2 (Wurfbainia longiligularis, UniProt A0A7L7T499).
T1 construct: gene TPS2; full ORF 587 residues; predicted 34-residue N-terminal plastid transit peptide removed; MBP fusion (pMAL-c5X), E. coli Rosetta (DE3), about 108 kDa, tag kept
T1 sequence (A0A7L7T499 35-587): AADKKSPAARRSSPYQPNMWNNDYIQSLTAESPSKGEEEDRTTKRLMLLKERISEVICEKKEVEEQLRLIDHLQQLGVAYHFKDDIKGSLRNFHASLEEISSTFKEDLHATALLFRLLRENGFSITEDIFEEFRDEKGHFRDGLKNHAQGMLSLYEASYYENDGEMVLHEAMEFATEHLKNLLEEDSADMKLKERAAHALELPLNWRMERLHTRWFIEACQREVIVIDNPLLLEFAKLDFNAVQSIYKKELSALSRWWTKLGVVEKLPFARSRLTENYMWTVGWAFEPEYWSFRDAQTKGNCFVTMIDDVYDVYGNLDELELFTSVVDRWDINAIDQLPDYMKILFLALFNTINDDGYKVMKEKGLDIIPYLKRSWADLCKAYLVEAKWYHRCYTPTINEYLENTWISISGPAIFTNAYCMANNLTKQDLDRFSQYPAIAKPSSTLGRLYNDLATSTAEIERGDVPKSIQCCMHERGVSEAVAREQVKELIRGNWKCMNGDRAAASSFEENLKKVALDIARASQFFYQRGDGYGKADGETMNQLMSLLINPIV
The following applies: 30 C, 1 h; then alkaline phosphatase 37 C.

Another assay deals with T2, AvTPS2 (Wurfbainia villosa, UniProt A0A7L7TAQ2).
T2 construct: gene TPS2; full ORF 587 residues; predicted 34-residue N-terminal plastid transit peptide removed
T2 sequence (A0A7L7TAQ2 35-587): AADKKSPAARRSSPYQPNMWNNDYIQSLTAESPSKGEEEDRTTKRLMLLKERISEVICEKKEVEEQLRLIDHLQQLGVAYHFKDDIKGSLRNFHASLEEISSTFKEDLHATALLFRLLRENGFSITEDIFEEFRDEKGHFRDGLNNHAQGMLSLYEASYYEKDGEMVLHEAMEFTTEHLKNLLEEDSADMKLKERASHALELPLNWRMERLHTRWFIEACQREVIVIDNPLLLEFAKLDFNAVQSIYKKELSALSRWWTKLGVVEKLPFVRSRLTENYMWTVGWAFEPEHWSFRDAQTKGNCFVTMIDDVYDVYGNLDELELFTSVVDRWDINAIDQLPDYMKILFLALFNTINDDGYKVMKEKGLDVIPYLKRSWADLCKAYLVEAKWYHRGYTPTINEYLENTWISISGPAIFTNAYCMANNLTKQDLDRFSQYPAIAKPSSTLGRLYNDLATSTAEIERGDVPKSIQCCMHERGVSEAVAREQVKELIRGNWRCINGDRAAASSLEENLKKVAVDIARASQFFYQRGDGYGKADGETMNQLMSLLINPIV
The following applies: 30 C, 1 h; then alkaline phosphatase 37 C.

The target of assay [1] is T3, AlTPS3 (Wurfbainia longiligularis, UniProt A0A7L7T473).
T3 construct: gene TPS3; ORF 1791 bp, printed as 597 residues; predicted 47-residue N-terminal plastid transit peptide removed
T3 sequence (A0A7L7T473 48-597): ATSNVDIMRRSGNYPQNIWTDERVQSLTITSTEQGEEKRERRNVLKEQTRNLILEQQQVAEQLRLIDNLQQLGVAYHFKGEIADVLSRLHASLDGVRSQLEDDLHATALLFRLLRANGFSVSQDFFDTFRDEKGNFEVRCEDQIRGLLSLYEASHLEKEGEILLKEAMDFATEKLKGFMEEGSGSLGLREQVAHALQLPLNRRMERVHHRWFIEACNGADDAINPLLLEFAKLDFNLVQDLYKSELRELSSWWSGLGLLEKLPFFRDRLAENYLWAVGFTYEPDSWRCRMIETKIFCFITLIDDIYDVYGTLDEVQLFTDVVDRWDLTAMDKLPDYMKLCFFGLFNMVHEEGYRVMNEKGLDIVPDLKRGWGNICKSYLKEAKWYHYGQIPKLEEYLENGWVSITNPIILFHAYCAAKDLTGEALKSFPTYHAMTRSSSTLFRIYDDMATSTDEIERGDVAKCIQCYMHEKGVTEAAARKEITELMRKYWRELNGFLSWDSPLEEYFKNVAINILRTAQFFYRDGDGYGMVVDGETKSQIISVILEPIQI
The following applies: 30 C, 1 h; then alkaline phosphatase 37 C.

Assay [2] has as its target T4, AlTPS3 (Wurfbainia longiligularis, UniProt A0A7L7T473, A496G).
T4 construct: gene TPS3; ORF 1791 bp, printed as 597 residues; predicted 47-residue N-terminal plastid transit peptide removed
The following applies: overnight incubation with GPP; conserved DTE motif.

The target of a further assay is T5, AvBPPS (Wurfbainia villosa, UniProt A0A2Z4K4Q8).
T5 construct: gene TPS3; full length 596 residues; recombinant, cloned in the authors' earlier work (Wang et al. 2018); truncation and tag not restated here
T5 sequence (A0A2Z4K4Q8 entry or part of it): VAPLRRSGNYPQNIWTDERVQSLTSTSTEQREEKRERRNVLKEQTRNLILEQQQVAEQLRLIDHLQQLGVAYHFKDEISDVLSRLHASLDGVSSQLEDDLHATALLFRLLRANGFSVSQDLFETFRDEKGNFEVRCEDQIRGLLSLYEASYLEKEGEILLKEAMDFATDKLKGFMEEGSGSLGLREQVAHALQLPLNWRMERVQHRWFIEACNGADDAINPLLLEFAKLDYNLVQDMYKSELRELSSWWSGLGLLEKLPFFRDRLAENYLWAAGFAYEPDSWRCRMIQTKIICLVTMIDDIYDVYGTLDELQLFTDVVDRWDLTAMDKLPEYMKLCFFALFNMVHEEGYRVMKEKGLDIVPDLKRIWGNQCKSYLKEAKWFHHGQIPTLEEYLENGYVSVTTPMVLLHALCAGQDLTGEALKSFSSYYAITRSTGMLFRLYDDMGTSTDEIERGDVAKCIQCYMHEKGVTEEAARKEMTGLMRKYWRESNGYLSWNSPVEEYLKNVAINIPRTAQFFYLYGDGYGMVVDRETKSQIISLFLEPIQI
The following applies: 30 C, 1 h; then alkaline phosphatase 37 C.

T4 sequence (A0A7L7T473 entry or part of it A496G): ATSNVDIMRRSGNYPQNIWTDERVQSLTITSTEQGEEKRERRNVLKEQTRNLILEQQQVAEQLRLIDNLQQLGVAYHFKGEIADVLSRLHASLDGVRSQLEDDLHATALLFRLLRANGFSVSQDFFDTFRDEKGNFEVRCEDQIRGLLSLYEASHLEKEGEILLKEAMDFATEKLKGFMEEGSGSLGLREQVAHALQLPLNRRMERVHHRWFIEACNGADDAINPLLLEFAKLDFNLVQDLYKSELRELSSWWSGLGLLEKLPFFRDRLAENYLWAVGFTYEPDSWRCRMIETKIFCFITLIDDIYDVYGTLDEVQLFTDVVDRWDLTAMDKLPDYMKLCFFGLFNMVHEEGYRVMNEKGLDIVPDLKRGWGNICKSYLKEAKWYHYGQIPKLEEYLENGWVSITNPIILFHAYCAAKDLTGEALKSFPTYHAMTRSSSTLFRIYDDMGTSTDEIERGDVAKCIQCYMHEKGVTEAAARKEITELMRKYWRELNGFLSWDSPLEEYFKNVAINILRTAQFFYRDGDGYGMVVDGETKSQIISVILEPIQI

`CC(C)=CCC/C(C)=C/COP(=O)(O)OP(=O)(O)O` [GPP]: the “GC-MS of terpene products after phosphatase treatment” value on AlTPS2 was “When the substrate was GPP, AlTPS2, and AvTPS2 produced the monoterpene product linalool”; on AvTPS2, “When the substrate was GPP, AlTPS2, and AvTPS2 produced the monoterpene product linalool”; at AlTPS3 [1], “AlTPS3 recombinant protein catalyzed GPP to produce camphene as the major product”; on AlTPS3 [2], “the site-directed mutant of AlTPS3-A496G and AvBPPS-G495A were constructed, and the overnight reaction with GPP”; at AvBPPS, “reaction products generated by recombinant protein AlTPS3 and AvBPPS from GPP”.
